Test results from PubChem BioAssay AID1963854 (Molecular Pharmacology Branch, DTP, NCI, 2024).

Test system: 186277-243-T-J2-PDC complex spheroid viability
Experiment: Anticancer human tumor 186277-243-T-J2-PDC patient-derived colon adenocarcinoma cell line growth inhibition [POLQ]
Details: for IC50: curve of first compound; for viability, T/C: stronger effect = lower value; active = viability on the fitted dose curve at most 10% of control; inactive = the rest
Procedure, shortened: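 PDC + HUVEC + MSC complex spheroids; POLQ inhibitors ± partner drugs; top conc. at/near clinical Cmax, else 10 microM (SN-38 1 microM), half-log dilutions; 37 degrees C, 5% CO2.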
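Note: spheroids exposed to compounds for seven days.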
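Throughout, for viability, T/C: 100% = DMSO vehicle control viability.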

CC(=O)O[C@H]1C(=O)[C@@]2(C)[C@H]([C@H](OC(=O)c3ccccc3)[C@]3(O)C[C@H](OC(=O)[C@H](O)[C@@H](NC(=O)c4ccccc4)c4ccccc4)C(C)=C1C3(C)C)[C@]1(OC(C)=O)CO[C@@H]1C[C@@H]2O + Nc1ccc(C#CCN(C(=O)Cc2ncc(C(F)(F)F)cc2C(F)(F)F)c2ccc(F)cc2)nn1
< 9.49 nM: IC50 (second compound 0.0316 µM) | IC50 (second compound 0.1 µM) | IC50 (second compound 0.316 µM) | IC50 (second compound 1 µM) | IC50 (second compound 3.16 µM) | IC50 (second compound 10 µM)
inactive: viability, T/C (second compound 0.0316 µM, first compound 0.00949 µM) 42.4% | viability, T/C (second compound 0.0316 µM, first compound 0.03 µM) 12.5% | viability, T/C (second compound 0.1 µM, first compound 0.00949 µM) 41.4% | viability, T/C (second compound 0.1 µM, first compound 0.03 µM) 10.8% | viability, T/C (second compound 0.316 µM, first compound 0.00949 µM) 41.7% | viability, T/C (second compound 0.316 µM, first compound 0.03 µM) 11.7% | viability, T/C (second compound 1 µM, first compound 0.00949 µM) 36.1% | viability, T/C (second compound 1 µM, first compound 0.03 µM) 13.4% | viability, T/C (second compound 3.16 µM, first compound 0.00949 µM) 28.4% | viability, T/C (second compound 3.16 µM, first compound 0.03 µM) 10.8% | viability, T/C (second compound 10 µM, first compound 0.00949 µM) 21.8%
active: viability, T/C (second compound 0.0316 µM, first compound 0.0949 µM) 7.75% | viability, T/C (second compound 0.0316 µM, first compound 0.3 µM) 6.21% | viability, T/C (second compound 0.0316 µM, first compound 0.949 µM) 5.52% | viability, T/C (second compound 0.0316 µM, first compound 3 µM) 8.14% | viability, T/C (second compound 0.1 µM, first compound 0.0949 µM) 7.09% | viability, T/C (second compound 0.1 µM, first compound 0.3 µM) 5.96% | viability, T/C (second compound 0.1 µM, first compound 0.949 µM) 6.1% | viability, T/C (second compound 0.1 µM, first compound 3 µM) 5.64% | viability, T/C (second compound 0.316 µM, first compound 0.0949 µM) 7.17% | viability, T/C (second compound 0.316 µM, first compound 0.3 µM) 6.38% | viability, T/C (second compound 0.316 µM, first compound 0.949 µM) 5.86% | viability, T/C (second compound 0.316 µM, first compound 3 µM) 6.59% | viability, T/C (second compound 1 µM, first compound 0.0949 µM) 6.63% | viability, T/C (second compound 1 µM, first compound 0.3 µM) 5.56% | viability, T/C (second compound 1 µM, first compound 0.949 µM) 6.34% | viability, T/C (second compound 1 µM, first compound 3 µM) 5.24% | viability, T/C (second compound 3.16 µM, first compound 0.0949 µM) 7.02% | viability, T/C (second compound 3.16 µM, first compound 0.3 µM) 6.36% | viability, T/C (second compound 3.16 µM, first compound 0.949 µM) 6.4% | viability, T/C (second compound 3.16 µM, first compound 3 µM) 4.96% | viability, T/C (second compound 10 µM, first compound 0.03 µM) 8.01% | viability, T/C (second compound 10 µM, first compound 0.0949 µM) 6.35% | viability, T/C (second compound 10 µM, first compound 0.3 µM) 5.6% | viability, T/C (second compound 10 µM, first compound 0.949 µM) 7.72% | viability, T/C (second compound 10 µM, first compound 3 µM) 5.68%

CC[C@@]1(O)C(=O)OCc2c1cc1n(c2=O)Cc2cc3c(CN(C)C)c(O)ccc3nc2-1 + Nc1ccc(C#CCN(C(=O)Cc2ncc(C(F)(F)F)cc2C(F)(F)F)c2ccc(F)cc2)nn1
inactive: viability, T/C (second compound 0.0316 µM, first compound 0.000316 µM) 114% | viability, T/C (second compound 0.0316 µM, first compound 0.001 µM) 98% | viability, T/C (second compound 0.0316 µM, first compound 0.00316 µM) 123% | viability, T/C (second compound 0.0316 µM, first compound 0.01 µM) 114% | viability, T/C (second compound 0.0316 µM, first compound 0.0316 µM) 136% | viability, T/C (second compound 0.0316 µM, first compound 0.1 µM) 91.7% | viability, T/C (second compound 0.1 µM, first compound 0.000316 µM) 109% | viability, T/C (second compound 0.1 µM, first compound 0.001 µM) 93.8% | viability, T/C (second compound 0.1 µM, first compound 0.00316 µM) 90.6% | viability, T/C (second compound 0.1 µM, first compound 0.01 µM) 129% | viability, T/C (second compound 0.1 µM, first compound 0.0316 µM) 128% | viability, T/C (second compound 0.1 µM, first compound 0.1 µM) 88.1% | viability, T/C (second compound 0.316 µM, first compound 0.000316 µM) 92.9% | viability, T/C (second compound 0.316 µM, first compound 0.001 µM) 87.2% | viability, T/C (second compound 0.316 µM, first compound 0.00316 µM) 108% | viability, T/C (second compound 0.316 µM, first compound 0.01 µM) 133% | viability, T/C (second compound 0.316 µM, first compound 0.0316 µM) 124% | viability, T/C (second compound 0.316 µM, first compound 0.1 µM) 83.8% | viability, T/C (second compound 1 µM, first compound 0.000316 µM) 97.3% | viability, T/C (second compound 1 µM, first compound 0.001 µM) 105% | viability, T/C (second compound 1 µM, first compound 0.00316 µM) 117% | viability, T/C (second compound 1 µM, first compound 0.01 µM) 115% | viability, T/C (second compound 1 µM, first compound 0.0316 µM) 130% | viability, T/C (second compound 1 µM, first compound 0.1 µM) 81.1% | viability, T/C (second compound 3.16 µM, first compound 0.000316 µM) 89.2% | viability, T/C (second compound 3.16 µM, first compound 0.001 µM) 91.5% | viability, T/C (second compound 3.16 µM, first compound 0.00316 µM) 104% | viability, T/C (second compound 3.16 µM, first compound 0.01 µM) 122% | viability, T/C (second compound 3.16 µM, first compound 0.0316 µM) 124% | viability, T/C (second compound 3.16 µM, first compound 0.1 µM) 79.9% | viability, T/C (second compound 10 µM, first compound 0.000316 µM) 111% | viability, T/C (second compound 10 µM, first compound 0.001 µM) 89.7% | viability, T/C (second compound 10 µM, first compound 0.00316 µM) 116% | viability, T/C (second compound 10 µM, first compound 0.01 µM) 121% | viability, T/C (second compound 10 µM, first compound 0.0316 µM) 107% | viability, T/C (second compound 10 µM, first compound 0.1 µM) 70.6%
> 100 nM: IC50 (second compound 0.0316 µM) | IC50 (second compound 0.1 µM) | IC50 (second compound 0.316 µM) | IC50 (second compound 1 µM) | IC50 (second compound 3.16 µM) | IC50 (second compound 10 µM)
